Experimental data reported in PMC3353318 (Bioorganic & Medicinal Chemistry, 2011).
Values joined by “and” are separate entries in the source; they are usually repeats but may differ in a detail not shown here. Identical values can stand only once. “Also recorded” adds a separate entry of the source. Like-named read-outs stand apart in the source and are kept apart here.

Tests used:
VSV in HEL cells = format: cell-based, vesicular stomatitis virus
[1] = tested on: vesicular stomatitis virus (VSV) in HeLa cells; settings: for EC50: read-out: EC50 (50% antiviral effective concentration) against VSV
NMDA receptors = format: cell-based, rat
[2] = tested on: bloodstream form T. brucei (strain 427); format: cell-based, Trypanosoma brucei
[3] = cited from earlier work
[4] = tested on: influenza A/Puerto Rico/8/34 (H1N1); experiment: Influenza virus assay, A/H1N1; format: cell-based; settings: read-out: antiviral EC50 against influenza A/H1N1 subtype
[5] = read-out: IC50, Glutamate (100 μM)

N,N-dipropargyl-6,7,8,9,10,11-hexahydro-9-methyl-5,7:9,11-dimethano-5H-benzocyclononen-7-amine hydrochloride [Compound 10]
activity against VSV in HEL cells (in words) (VSV in HEL cells): not active
selectivity index (ratio of cytotoxic to antiviral concentration) [1]: 25
EC50 [1]: 4 µM

N-Propargyl-6,7,8,9,10,11-hexahydro-9-methyl-5,7:9,11-dimethano-5H-benzocyclononen-7-amine hydrochloride [Compound 9]
IC50 (NMDA receptors; [5]): > 500 µM
IC50 (NMDA receptors; read-out: IC50, NMDA (100 μM)): 27.5 ± 13.2 µM
IC90 lower than that of rimantadine (fold) ([2]; versus rimantadine): more than 4 times

6,7,8,9,10,11-Hexahydro-9-methyl-5,7:9,11-dimethano-5H-benzocyclononen-7-amine hydrochloride [Compound 3]
IC50 (NMDA receptors; [5]): 22 ± 3.9 µM
IC50 (NMDA receptors; read-out: IC50, NMDA (100 μM)): 13.6 ± 3.4 µM

N-Benzyl-N-methyl-6,7,8,9,10,11-hexahydro-9-methyl-5,7:9,11-dimethano-5H-benzocyclononen-7-amine hydrochloride [Compound 7]
NMDA receptor antagonist activity (in words) (NMDA receptors): devoid of activity

N,N-Dimethyl-6,7,8,9,10,11-hexahydro-9-methyl-5,7:9,11-dimethano-5H-benzocyclononen-7-amine hydrochloride [Compound 11]
IC50 (NMDA receptors; [5]): 87 ± 28 µM
IC50 (NMDA receptors; read-out: IC50, NMDA (100 μM)): 12 µM and 11.8 µM
inhibitory activity against cultured bloodstream form T. brucei (in words) ([2]; at 5 μg mL^−1 (15–20 μM)): little or no inhibitory activity

N-Methyl-6,7,8,9,10,11-hexahydro-9-methyl-5,7:9,11-dimethano-5H-benzocyclononen-7-amine hydrochloride [Compound 8]
IC50 (NMDA receptors; [5]): 455 ± 216 µM
IC50 (NMDA receptors; read-out: IC50, NMDA (100 μM)): 19.4 ± 3.3 µM

N-(6,7,8,9,10,11-hexahydro-9-methyl-5,7:9,11-dimethano-5H-benzocyclononen-7-yl)piperidine hydrochloride [Compound 12]
IC50 (NMDA receptors; [5]): > 500 µM
activity against VSV in HEL cells (in words) (VSV in HEL cells): not active
EC50 [1]: 54 µM

c1ccc(CNC23OC4C5C6CC(C7C6C4C72)C53)cc1 (stereo not shown) [NGP1-01]
stability in aqueous medium (in words) [3]: decomposes easily in aqueous medium

N-Benzyl-6,7,8,9,10,11-hexahydro-9-methyl-5,7:9,11-dimethano-5H-benzocyclononen-7-amine hydrochloride [Compound 6]
NMDA receptor antagonist activity (in words) (NMDA receptors): devoid of activity; also recorded: not active as NMDA receptor antagonist
IC50 ([2]; read-out: IC50 against cultured bloodstream form T. brucei): 3 ± 0.32 µM
IC90 ([2]; read-out: IC90 against cultured bloodstream form T. brucei): 6.55 ± 0.32 µM
EC50 [4]: 10 µM
